Positions count from the first letter of the chain named.
Key:
TRPM3 V990M mutant = molecular target: T1, TRPM3 V990M mutant (Homo sapiens, UniProt Q9HCF6, V1015M); test: Whole-cell patch clamp, HEK293T cells expressing V990M hTRPM3; assay type: cell-based; conditions: La3+ 10 µM, PS 40 µM, ±150 mV
T1 construct: expressed in transfected cells; host or cells: HEK293T
T1 sequence (Q9HCF6 1-1325 isoform Q9HCF6-10 V990M): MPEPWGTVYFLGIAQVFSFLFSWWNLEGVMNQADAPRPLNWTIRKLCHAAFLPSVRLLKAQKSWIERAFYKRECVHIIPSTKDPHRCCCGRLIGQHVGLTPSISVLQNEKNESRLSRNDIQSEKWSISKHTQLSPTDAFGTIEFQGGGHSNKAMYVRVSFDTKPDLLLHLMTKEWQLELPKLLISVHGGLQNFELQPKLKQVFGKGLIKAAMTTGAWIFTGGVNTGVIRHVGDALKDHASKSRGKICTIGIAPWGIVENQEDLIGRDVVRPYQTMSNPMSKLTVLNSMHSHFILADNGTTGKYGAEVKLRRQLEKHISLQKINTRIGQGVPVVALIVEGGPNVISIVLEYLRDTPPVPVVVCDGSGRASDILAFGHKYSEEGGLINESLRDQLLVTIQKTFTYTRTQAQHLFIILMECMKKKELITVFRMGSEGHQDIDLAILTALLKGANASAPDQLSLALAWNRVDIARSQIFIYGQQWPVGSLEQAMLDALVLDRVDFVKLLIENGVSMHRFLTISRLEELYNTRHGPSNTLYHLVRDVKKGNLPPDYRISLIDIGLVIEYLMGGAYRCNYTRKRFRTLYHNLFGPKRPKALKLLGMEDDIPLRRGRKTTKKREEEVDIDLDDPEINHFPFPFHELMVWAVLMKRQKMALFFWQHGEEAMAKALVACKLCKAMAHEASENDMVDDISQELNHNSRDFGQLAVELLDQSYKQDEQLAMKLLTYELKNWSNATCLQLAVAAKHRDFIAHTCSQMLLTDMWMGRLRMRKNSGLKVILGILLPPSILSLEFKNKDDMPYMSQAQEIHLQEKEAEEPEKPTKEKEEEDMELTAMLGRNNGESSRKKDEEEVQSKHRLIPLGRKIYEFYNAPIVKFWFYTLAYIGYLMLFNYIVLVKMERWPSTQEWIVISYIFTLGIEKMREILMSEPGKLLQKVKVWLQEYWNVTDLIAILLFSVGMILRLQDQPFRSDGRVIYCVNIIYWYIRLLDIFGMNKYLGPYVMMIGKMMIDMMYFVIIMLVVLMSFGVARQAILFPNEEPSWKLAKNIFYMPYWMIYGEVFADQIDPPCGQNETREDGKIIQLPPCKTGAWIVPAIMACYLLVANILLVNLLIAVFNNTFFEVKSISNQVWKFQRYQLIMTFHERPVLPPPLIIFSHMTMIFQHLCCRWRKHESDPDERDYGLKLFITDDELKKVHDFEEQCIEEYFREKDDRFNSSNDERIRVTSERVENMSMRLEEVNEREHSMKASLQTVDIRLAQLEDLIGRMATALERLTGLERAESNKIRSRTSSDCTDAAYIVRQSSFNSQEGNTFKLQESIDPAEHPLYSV
Procedure: (§1) HEK293T cells ([Graham et al., 1977]) were cultured as described previously ([Vriens et al., 2007]) and used up in passage number 14. HEK293T cells were tested for the lack of mycoplasma and transiently transfected with 2 µg of DNA using TransIT transfection reagent (Mirus) 36–48 hr before the measurements. In case of co-cultures a ratio of 1:1 between hTRPM3-YFP WT and mutants-YFP DNA was used.
All mutants were obtained by the standard PCR overlap extension method using hTRPM3 directly linked to YFP from pCAGGS/IRES-GFP vector ([Vriens et al., 2007]). Accuracy of all mutant sequences was verified by sequencing of the entire DNA constructs.
(§2) Standard whole-cell patch-clamp recordings were performed with an EPC-10 amplifier and the PatchMasterPro Software (HEKA Elektronik, Lambrecht, Germany). Current measurements were performed at a sampling rate of 20 kHz and currents were digitally filtered at 2.9 kHz. In all measurements, 70% of the series resistance was compensated. The standard internal solution contained (in mM): 100 CsAsp, 45 CsCl, 10 EGTA, 10 HEPES, 1 MgCl2 (pH 7.2 with CsOH) or 140 potassium gluconate, 5 EGTA, 1 MgCl2, 10 HEPES and 2 NaATP (pH 7.3 with CsOH) for the measurements of Gβγ mediated inhibition and the standard extracellular solution contained (in mM): 150 NaCl, 1 MgCl2, 10 HEPES (pH 7.4 with NaOH). The standard patch pipette resistance was between 2 MΩ and 4 MΩ when filled with pipette solution. In experiments allowing Ca^2+-dependent desensitization of TRPM3, Mg^2+ was replaced by Ca^2+ in the extracellular solution, and Cs^+ was replaced by Na^+ in the pipette solution. […] The chemical ligands were dissolved in bath solution from a stock diluted in DMSO.

[1] = system: WT hTRPM3 co-transfected with µ-opioid receptors; test: Whole-cell patch clamp, Gβγ-mediated inhibition of PS-activated currents, cells co-transfected with µ-opioid receptor and WT TRPM3; assay type: cell-based, human
Procedure: (§3) TRPM3 activity is inhibited upon activation of G protein-coupled receptors, via a mechanism that involves direct binding of the Gβγ of trimeric G-proteins to the channel ([Badheka et al., 2017]; [Dembla et al., 2017]; [Quallo et al., 2017]).
as §1
(§4) Standard whole-cell patch-clamp recordings were performed with an EPC-10 amplifier and the PatchMasterPro Software (HEKA Elektronik, Lambrecht, Germany). Current measurements were performed at a sampling rate of 20 kHz and currents were digitally filtered at 2.9 kHz. In all measurements, 70% of the series resistance was compensated. The standard internal solution contained (in mM): 100 CsAsp, 45 CsCl, 10 EGTA, 10 HEPES, 1 MgCl2 (pH 7.2 with CsOH) or 140 potassium gluconate, 5 EGTA, 1 MgCl2, 10 HEPES and 2 NaATP (pH 7.3 with CsOH) for the measurements of Gβγ mediated inhibition and the standard extracellular solution contained (in mM): 150 NaCl, 1 MgCl2, 10 HEPES (pH 7.4 with NaOH). […]

[2] = system: P1090Q hTRPM3 co-transfected with µ-opioid receptors; test: Whole-cell patch clamp, Gβγ-mediated inhibition of PS-activated currents, cells co-transfected with µ-opioid receptor and P1090Q TRPM3; assay type: cell-based, human; conditions: 1 µM DAMGO, PS 40 µM
Procedure: as §3, §1, §4

WT human TRPM3 = molecular target: T2, WT human TRPM3 (Homo sapiens, UniProt Q9HCF6); test: Whole-cell patch clamp, HEK293T cells expressing WT hTRPM3; assay type: cell-based; conditions: cells not co-transfected with the µ-opioid receptor; DAMGO 1 µM, PS 40 µM
T2 construct: expressed in transfected cells; host or cells: HEK293T
T2 sequence (Q9HCF6 1-1325 isoform Q9HCF6-10): T1 sequence (Q9HCF6 1-1325 isoform Q9HCF6-10 V990M) with M990V
Procedure: as §1, §2

[3] = system: V990M hTRPM3 co-transfected with µ-opioid receptors; test: Whole-cell patch clamp, Gβγ-mediated inhibition of PS-activated currents, cells co-transfected with µ-opioid receptor and V990M TRPM3; assay type: cell-based, human
Procedure: as §3, §1, §4

[4] = n = 5, read-out: IC50, DAMGO concentration for half-maximal inhibition of PS-activated currents

| Compound | Block of the inward component of the PS-activated current (TRPM3 V990M mutant) | Inhibition of PS-activated inward and outward currents ([1]; 1 µM DAMGO, PS 40 µM) | IC50 [1, 4] [nM] | Inhibition of PS-activated inward and outward currents [2] | Effect on TRPM3 currents (WT human TRPM3) | Inhibition of PS-activated inward and outward currents ([3]; 1 µM DAMGO, PS 40 µM) | IC50 [3, 4] [nM] |
| --- | --- | --- | --- | --- | --- | --- | --- |
| [La+3] [La^3+, Lanthanum] | resistant to block |  |  |  |  |  |  |
| [D-Ala^2, N-Me-Phe^4, Gly^5-ol]-enkephalin acetate salt [DAMGO] |  | complete and rapidly reversible inhibition | 4 ± 0.6 | complete and rapidly reversible inhibition | without effect | only partly inhibited | 40 ± 10 |

From article PMC7253177, “Gain of channel function and modified gating properties in TRPM3 mutants causing intellectual disability and epilepsy” (eLife, 2020)
